Assay results taken from ChEMBL document CHEMBL1201862, “PubChem BioAssay data set” (2004).
Active and inactive are the calls of the source.

Experiments:
[1] = HIV-1 Vif–A3G interaction blockers – biochemical, TR-FRET, GST-Vif 1-94, biotin-A3G peptide, dose response retest, primary screen (AID 1117319); type: functional;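 further: TR-FRET signal of purified GST-Vif binding a biotinylated A3G peptide; inhibitors lower the FRET signal by blocking Vif and A3G binding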
[2] = system: Streptococcus; assay: GAS UMAA2166 growth inhibition – luminescence, BacTiterGlo, counter-screen for streptokinase expression inhibitor project, dose response (AID 1915); type: functional, organism-based;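 further: potency for reduction of bacterial viability or growth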
[3] = system: Streptococcus sp. 'group A'; assay: Streptococcus pyogenes SK(-)GAS viability under kanamycin – luminescence, BacTiterGlo, confirmation, counter-screen for streptokinase expression inhibitor project, dose response (AID 1900); type: functional, organism-based
[4] = target: T1, Streptokinase A (Streptococcus pyogenes serotype M1, UniProt P10520); assay: viability-normalized secreted streptokinase activity reduction – plasminogen activation absorbance, OD405, dose response (AID 1914); type: functional, Streptococcus pyogenes M1 GAS;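 further: secreted streptokinase activity via plasminogen activation per viability signal from cell pellet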
T1 sequence (P10520 whole entry): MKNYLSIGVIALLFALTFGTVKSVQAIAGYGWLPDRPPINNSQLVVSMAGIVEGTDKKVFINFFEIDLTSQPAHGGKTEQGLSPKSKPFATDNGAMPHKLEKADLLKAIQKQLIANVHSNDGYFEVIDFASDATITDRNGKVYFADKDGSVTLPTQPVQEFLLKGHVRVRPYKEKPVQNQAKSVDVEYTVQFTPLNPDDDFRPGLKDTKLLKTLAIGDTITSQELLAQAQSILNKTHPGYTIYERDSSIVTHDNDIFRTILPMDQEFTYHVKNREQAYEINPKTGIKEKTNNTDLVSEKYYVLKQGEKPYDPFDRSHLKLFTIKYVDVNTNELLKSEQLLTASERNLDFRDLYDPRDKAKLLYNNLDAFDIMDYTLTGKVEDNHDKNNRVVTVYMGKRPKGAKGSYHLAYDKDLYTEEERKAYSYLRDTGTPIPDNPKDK

[5] = target: DNA dC->dU-editing enzyme APOBEC-3A (Homo sapiens, UniProt P31941); assay: Dose Response confirmation of small molecule APOBEC3A DNA Deaminase Inhibitors via a fluorescence-based single-stranded DNA deaminase assay. [Related pubchem assays (depositor defined):AID493011, AID493024]; type: functional
[6] = target: DNA dC->dU-editing enzyme APOBEC-3G (Homo sapiens, UniProt Q9HC16); type: functional;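 further: Dose-response counterscreen measuring inhibition of APOBEC3G DNA deaminase activity, run while confirming APOBEC3A inhibitors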
[7] = target: Estrogen receptor beta (Homo sapiens, UniProt Q92731);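 further: recombinant ER-beta bound to coactivator SRC1 peptide in presence of estradiol agonist; inhibitors block coactivator peptide binding and lower the FRET signal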
[8] = viability loss in human Jurkat cells – cell-based, luminescence, cytotoxicity control for P. falciparum gametocyte viability project, dose response (AID 1117277); type: functional;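 further: potency reflects loss of cellular ATP meaning fewer viable cells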
[9] = viability inhibitors of stage V gametocytes – luminescence, dose response (AID 1117278); type: functional, cell-based;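 further: gametocytes exposed to compound for 24 hours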
[10] = viability loss in THP-1 monocytes – THP-1 cells, cytotoxicity control for Vif-APOBEC3G degradation inhibitor project, dose response (AID 1117359); type: functional; conditions: THP-1
[11] = A Cell Based Secondary Assay To Explore Cytotoxicity of Compounds that Sensitize Mycobacterium Tuberculosis to Beta-Lactam Antibiotics.; type: functional
[12] = HEK-293T cell viability reduction – luminescence, B-cell screen hits, cytotoxicity control for BCR NF-kB inhibitor project, dose response (AID 489021); type: functional, cell-based;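 further: HEK-293T cells carrying an NF-kB luciferase reporter; cells exposed to compound for about 14 hours before viability readout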
[13] = HEK-293T viability loss after treatment – luminescence, T-cell screen hits, cytotoxicity control for TCR NF-kB inhibitor project, dose response (AID 489026); type: functional, cell-based;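 further: cells exposed to compound about 14 hours before the viability readout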
[14] = target: Eukaryotic translation initiation factor 4E (Mus musculus, UniProt P63073); assay: blockers of eIF4G binding by eIF4E – biochemical, TR-FRET, dose response (AID 855); type: functional;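 further: potency for disrupting eIF4E binding to eIF4GI seen as loss of FRET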
[15] = target: T2, Rac GTPase-activating protein 1 (Homo sapiens, UniProt Q9H0H5); assay: blockers of MgcRacGAP-driven Rac1 GTP hydrolysis – biochemical, ADP Hunter fluorescence, primary and confirmatory, confirmation (AID 624330); type: functional
T2 sequence (Q9H0H5 whole entry): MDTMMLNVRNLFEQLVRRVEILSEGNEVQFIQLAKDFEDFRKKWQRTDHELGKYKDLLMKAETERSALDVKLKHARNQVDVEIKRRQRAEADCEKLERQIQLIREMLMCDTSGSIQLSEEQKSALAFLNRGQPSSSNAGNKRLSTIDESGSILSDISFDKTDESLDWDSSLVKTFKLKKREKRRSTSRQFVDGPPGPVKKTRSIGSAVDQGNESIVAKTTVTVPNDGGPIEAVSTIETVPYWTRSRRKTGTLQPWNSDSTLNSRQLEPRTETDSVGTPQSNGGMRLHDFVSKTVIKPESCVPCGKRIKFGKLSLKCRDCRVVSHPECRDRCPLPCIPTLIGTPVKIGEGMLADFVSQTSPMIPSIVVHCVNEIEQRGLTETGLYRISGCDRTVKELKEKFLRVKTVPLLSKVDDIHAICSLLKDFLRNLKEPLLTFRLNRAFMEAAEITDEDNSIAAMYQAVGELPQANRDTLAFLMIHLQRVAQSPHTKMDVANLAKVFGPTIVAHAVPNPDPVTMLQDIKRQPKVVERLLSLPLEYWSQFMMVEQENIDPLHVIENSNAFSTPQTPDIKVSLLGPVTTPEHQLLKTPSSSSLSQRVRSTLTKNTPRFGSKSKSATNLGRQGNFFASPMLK

Sequence of Eukaryotic translation initiation factor 4E (P63073 whole entry): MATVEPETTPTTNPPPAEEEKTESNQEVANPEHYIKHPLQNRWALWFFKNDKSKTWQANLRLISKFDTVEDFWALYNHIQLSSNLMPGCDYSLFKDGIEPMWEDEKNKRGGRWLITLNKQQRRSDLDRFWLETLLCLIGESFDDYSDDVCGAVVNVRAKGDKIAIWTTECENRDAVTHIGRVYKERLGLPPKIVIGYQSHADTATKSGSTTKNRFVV
Sequence of DNA dC->dU-editing enzyme APOBEC-3G (Q9HC16 whole entry): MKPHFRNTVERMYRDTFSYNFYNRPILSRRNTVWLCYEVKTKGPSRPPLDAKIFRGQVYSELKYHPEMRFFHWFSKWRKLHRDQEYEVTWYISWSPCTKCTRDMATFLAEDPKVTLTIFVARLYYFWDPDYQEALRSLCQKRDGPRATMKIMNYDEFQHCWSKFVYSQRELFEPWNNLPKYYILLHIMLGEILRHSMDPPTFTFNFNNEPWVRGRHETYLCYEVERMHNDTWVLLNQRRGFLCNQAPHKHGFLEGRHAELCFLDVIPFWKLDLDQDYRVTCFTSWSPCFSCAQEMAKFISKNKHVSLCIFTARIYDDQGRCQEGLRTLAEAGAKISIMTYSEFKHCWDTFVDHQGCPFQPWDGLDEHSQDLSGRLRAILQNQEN
Sequence of Estrogen receptor beta (Q92731 whole entry): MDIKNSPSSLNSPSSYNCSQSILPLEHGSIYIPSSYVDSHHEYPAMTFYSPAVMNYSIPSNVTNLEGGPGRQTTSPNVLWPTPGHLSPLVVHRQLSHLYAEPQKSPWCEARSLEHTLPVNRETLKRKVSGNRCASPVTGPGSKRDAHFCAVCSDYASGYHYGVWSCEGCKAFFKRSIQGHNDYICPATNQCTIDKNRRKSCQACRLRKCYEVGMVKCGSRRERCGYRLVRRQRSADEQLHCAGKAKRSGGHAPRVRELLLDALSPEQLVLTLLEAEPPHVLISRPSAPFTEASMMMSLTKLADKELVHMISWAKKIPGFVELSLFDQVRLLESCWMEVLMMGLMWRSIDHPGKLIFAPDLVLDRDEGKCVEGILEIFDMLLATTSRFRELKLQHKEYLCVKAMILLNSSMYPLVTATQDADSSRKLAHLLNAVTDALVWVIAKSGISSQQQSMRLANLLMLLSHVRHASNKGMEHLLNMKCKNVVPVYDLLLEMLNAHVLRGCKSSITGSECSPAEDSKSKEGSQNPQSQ
Sequence of DNA dC->dU-editing enzyme APOBEC-3A (P31941 whole entry): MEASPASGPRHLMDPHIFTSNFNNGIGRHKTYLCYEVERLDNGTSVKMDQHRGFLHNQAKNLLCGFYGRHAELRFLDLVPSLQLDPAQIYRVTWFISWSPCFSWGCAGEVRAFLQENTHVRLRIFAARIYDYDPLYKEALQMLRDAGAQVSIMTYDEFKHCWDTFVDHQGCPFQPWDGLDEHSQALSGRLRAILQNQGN

With COC(=O)c1c[nH]nc1N=C(S)Nc1ccc(C)cc1Cl the IC50 [1] was > 100 µM (active), the EC50 [2] was > 150 µM (not active) and the EC50 [3] was 51.6 µM (active). For the same compound, the EC50 [4] was 56.8 µM (active).

In the case of CC(=O)OC(COC1C[C@@H]2CC[C@@]1(C)C2(C)C)C[N+]1(C)CCCCC1 (stereo partly drawn), the IC50 [5] is reported as 1.91 µM (active) and the IC50 [6] is reported as 3.55 µM (active).

With CN(CC(O)COc1ccc(S(=O)(=O)N2CCOCC2)cc1)C1CCCCC1 (stereo not drawn) the IC50 [7] was > 50 µM (not active).

For COc1ccc(CC(=O)Nc2ccc(C(N)=O)cc2)cc1, the IC50 [8] was > 83.3 µM (inactive) and the IC50 [9] was > 109 µM (inactive).

In the case of O=C(Cn1cnc2c(nnn2Cc2ccc(Cl)cc2)c1=O)NCc1ccco1, the IC50 [1] is reported as > 100 µM (active).

In the case of CC(=O)c1sc(NC(=O)C2CCN(C(=O)c3ccccc3C)CC2)nc1-c1ccccc1, the CC50 [10] is reported as > 40 µM (active).

For COCCCn1c(=O)/c(=C\c2cccc(OC)c2OC)s/c1=C(/C#N)C(=O)Nc1ccc(C(=O)O)cc1, the CC50 [11] was > 40 µM (active) and the IC50 [12] was > 80 µM (inactive).

For Oc1cc(-c2ccccc2)nc2ccccc12, the IC50 [13] was > 80 µM (inactive) and the IC50 [14] was > 64 µM (inactive).

For Sc1nnc(-c2ccco2)n1/N=C/c1ccc(Cl)cc1, the IC50 [15] was 58.3 µM (active) and the IC50 [14] was > 64 µM (inactive).

In the case of Cc1ccc2c(c1)N=C(c1ccc(Cl)cc1)CO2, the IC50 [1] is reported as > 100 µM (active).
